From patent publication US20220348883A1, “HIGH-DENSITY CELL CULTURE METHOD” (AJINOMOTO CO., INC., priority 2020, published 2022)

System: iPS cell 1210B2 strain
Details: StemFit AK03N+10 mg/L choline chloride vs StemFit AK03N; suspension culture seeded at 6×10^5 cells/mL; viable cells measured on 8th day of culture; n=1
Method: In the following Example, the proliferation effect of induced pluripotent stem cells (iPS cells) by choline were evaluated. As the iPS cell, 1210B2 strain purchased from iPS Academia Japan was used. In addition, as a medium for iPS cells, a commercially available StemFit AKO3N (Ajinomoto Co., Inc.) was used.
Using a 30 mL single use bioreactor for iPS cells (ABLE: BWV-S03A), iPS cell 1210B2 strain was seeded in StemFit AK03N+10 μM Y-27632 (Wako: 034-24024) at a cell density of 6×10^5 cells/mL and the cells were cultured with stirring in a CO2 incubator under the conditions of 37° C., CO2 concentration=5%, stirring speed=120 rpm. On the second day of seeding, 70% of the medium was replaced with StemFit AK03N. […] The cells were transferred to a micro bioreactor ambr15 (sartorius:001-0881), and stirring culture was continued under the conditions of 37° C., pH=7.2, dissolved oxygen concentration=20%, stirring speed=300 rpm. […] On the 8th day of culture, the number of viable cells was measured using Vi-CELL™ XR (Beckman Coulter), a live/dead cell autoanalyzer.

## C[N+](C)(C)CCO.[Cl-] [choline, choline chloride]
  influence of choline on the proliferation of iPS cells (number of viable cells): cell proliferation promoting effect
